According to US20240368135A1 (VERTEX PHARMACEUTICALS INCORPORATED, priority 2021, published 2024):
Where two headings read alike, the source gives them in different places.

Target: human NaV 1.8 (Homo sapiens, UniProt Q9Y5Y9)
Assay: E-VIPR assay detecting and measuring NaV inhibition properties
Format: cell-based
Settings: HEK cells expressing truncated human NaV 1.8
Procedure, shortened: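 HEK cells expressing truncated, fully active human NaV1.8, with KIR2.1 BacMam co-transduction, were loaded with CC2-DMPE/DiSBAC6(3) voltage-sensing dyes for 20 min at room temperature. Compounds were tested in 11-point 3-fold dilutions (300 nM top final), optionally with 25% human serum, under electrical stimulation with FRET read-out.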

[1] = no human serum, read-out: IC50 in the E-VIPR Assay
[2] = in the presence of human serum (compound numbers followed by *), read-out: IC50 in the E-VIPR Assay, performed in the presence of human serum

Chain of human NaV 1.8 (Q9Y5Y9 126-399 limits assumed): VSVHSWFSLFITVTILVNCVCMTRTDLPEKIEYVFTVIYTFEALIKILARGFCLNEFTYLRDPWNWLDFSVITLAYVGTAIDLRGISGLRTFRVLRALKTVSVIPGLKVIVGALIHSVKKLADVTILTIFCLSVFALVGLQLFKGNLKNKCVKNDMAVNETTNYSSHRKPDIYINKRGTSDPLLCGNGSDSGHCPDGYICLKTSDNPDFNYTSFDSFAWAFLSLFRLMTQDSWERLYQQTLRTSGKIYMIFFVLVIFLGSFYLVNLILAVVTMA
Chain of human NaV 1.8 (Q9Y5Y9 660-890 limits assumed): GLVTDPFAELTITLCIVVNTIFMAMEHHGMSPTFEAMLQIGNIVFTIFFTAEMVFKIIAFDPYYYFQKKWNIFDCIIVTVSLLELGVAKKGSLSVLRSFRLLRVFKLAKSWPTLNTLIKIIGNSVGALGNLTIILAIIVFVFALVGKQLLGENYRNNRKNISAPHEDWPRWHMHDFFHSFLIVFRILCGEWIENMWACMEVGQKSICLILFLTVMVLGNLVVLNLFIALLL
Chain of human NaV 1.8 (Q9Y5Y9 1148-1722 limits assumed): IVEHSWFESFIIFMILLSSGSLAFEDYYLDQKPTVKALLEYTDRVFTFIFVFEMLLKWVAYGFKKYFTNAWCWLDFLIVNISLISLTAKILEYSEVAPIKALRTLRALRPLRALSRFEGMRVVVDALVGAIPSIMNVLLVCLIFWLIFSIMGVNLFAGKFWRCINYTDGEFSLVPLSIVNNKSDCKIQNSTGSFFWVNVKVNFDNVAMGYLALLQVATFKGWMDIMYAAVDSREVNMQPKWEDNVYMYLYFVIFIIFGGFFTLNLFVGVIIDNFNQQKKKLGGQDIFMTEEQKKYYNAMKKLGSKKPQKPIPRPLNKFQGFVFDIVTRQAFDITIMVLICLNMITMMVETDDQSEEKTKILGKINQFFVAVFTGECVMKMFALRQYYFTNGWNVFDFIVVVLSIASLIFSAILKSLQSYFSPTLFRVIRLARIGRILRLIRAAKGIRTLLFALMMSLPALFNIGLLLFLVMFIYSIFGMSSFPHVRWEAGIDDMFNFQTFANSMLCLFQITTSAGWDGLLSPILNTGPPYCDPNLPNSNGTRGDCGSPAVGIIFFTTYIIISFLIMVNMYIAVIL

SMILES	IC50 [1] [nM]	IC50 [2] [nM]
COc1c([C@H]2[C@H](C(=O)NCCN3CCNC(=O)C3)O[C@@](C)(C(F)(F)F)[C@H]2C)ccc(F)c1F [Compound 302, (2R,3S,4S,5R)-3-(3,4-difluoro-2-methoxyphenyl)-4,5-dimethyl-N-(2-(3-oxopiperazin-1-yl)ethyl)-5-(trifluoromethyl)tetrahydrofuran-2-carboxamide]	≥ 1000	
C[C@H]1[C@@H](c2ccc(F)c(F)c2O[C@H]2C[C@@H](O)C2)[C@H](C(=O)Nc2ccn(C)c(=O)c2)O[C@@]1(C)C(F)(F)F [Compound 663, (2R,3S,4S,5R)-3-(3,4-difluoro-2-((1S,3R)-3-hydroxycyclobutoxy)phenyl)-4,5-dimethyl-N-(1-methyl-2-oxo-1,2-dihydropyridin-4-yl)-5-(trifluoromethyl)tetrahydrofuran-2-carboxamide]	10 to 100	
Cc1ncc(NC(=O)[C@@H]2O[C@@](C)(C(F)(F)F)[C@@H](C)[C@H]2c2ccc(F)c(F)c2OCCO)c(C)n1 [Compound 543, (2R,3S,4S,5R)-3-(3,4-difluoro-2-(2-hydroxyethoxy)phenyl)-N-(2,4-dimethylpyrimidin-5-yl)-4,5-dimethyl-5-(trifluoromethyl)tetrahydrofuran-2-carboxamide]	≥ 1000	
COc1c(C2C(C(=O)Nc3ccnc(C(O)C(C)O)c3)OC(C)(C(F)(F)F)C2C)ccc(F)c1C (single isomer, unassigned) [Compound 142]		≥ 1000
COc1c([C@H]2[C@H](C(=O)Nc3c(C)ncn3C)O[C@@](C)(C(F)(F)F)[C@H]2C)ccc(F)c1F [Compound 319, (2R,3S,4S,5R)-3-(3,4-difluoro-2-methoxyphenyl)-N-(1,4-dimethyl-1H-imidazol-5-yl)-4,5-dimethyl-5-(trifluoromethyl)-tetrahydrofuran-2-carboxamide]	≥ 1000	
COc1c([C@@H]2[C@@H](C(=O)Nc3ccnc(C(C)O)c3)O[C@](C)(C(F)(F)F)[C@@H]2C)ccc(F)c1F (single isomer, unassigned) [Compound 531]		≥ 1000
CCOc1c([C@@H]2[C@@H](C(=O)Nc3ccn(C)c(=O)c3)O[C@](C)(C(F)(F)F)[C@@H]2C)ccc(F)c1F (stereo in doubt) [Compound 102, rel-(2S,3R,4R,5S)-3-(2-ethoxy-3,4-difluorophenyl)-4,5-dimethyl-N-(1-methyl-2-oxo-1,2-dihydropyridin-4-yl)-5-(trifluoromethyl)tetrahydrofuran-2-carboxamide]	≥ 1000	
Cc1nn(C(F)F)cc1NC(=O)[C@@H]1O[C@@](C)(C(F)(F)F)[C@@H](C)[C@H]1c1ccc(F)c(F)c1OCC(=O)N(C)O [Compound 604, (2R,3S,4S,5R)-3-(3,4-difluoro-2-(2-(hydroxy(methyl)amino)-2-oxoethoxy)phenyl)-N-(1-(difluoromethyl)-3-methyl-1H-pyrazol-4-yl)-4,5-dimethyl-5-(trifluoromethyl)tetrahydrofuran-2-carboxamide]	100 to 1000	
COCC(c1ccc(NC(=O)[C@@H]2O[C@@](C)(C(F)(F)F)[C@@H](C)[C@H]2c2ccc(F)c(F)c2OC)cn1)N(C)C (single isomer, unassigned) [Compound 426, rel-(2R*,3S*,4S*,5R*)-3-(3,4-difluoro-2-methoxyphenyl)-N-(6-(1-(dimethylamino)-2-methoxyethyl)pyridin-3-yl)-4,5-dimethyl-5-(trifluoromethyl)-tetrahydrofuran-2-carboxamide]	100 to 1000	
CCOc1c([C@@H]2[C@@H](C(=O)Nc3ccnc(S(C)(=N)=O)c3)O[C@](C)(C(F)(F)F)[C@@H]2C)ccc(F)c1C (relative stereo) [Compound 124, rel-(2S,3R,4R,5S)-3-(2-ethoxy-4-fluoro-3-methylphenyl)-4,5-dimethyl-N-(2-(S-methylsulfonimidoyl)pyridin-4-yl)-5-(trifluoromethyl)tetrahydrofuran-2-carboxamide]	100 to 1000	

Results, then the molecule that gave them:

IC50 [1] [nM]	IC50 [2] [nM]	SMILES
< 10		CNC(=O)c1ccc(NC(=O)[C@@H]2O[C@@](C)(C(F)(F)F)[C@@H](C)[C@H]2c2ccc(F)c(C(F)F)c2OC)cn1 (stereo in doubt) [Compound 170, rel-5-((2R,3S,4S,5R)-3-(3-(difluoromethyl)-4-fluoro-2-methoxyphenyl)-4,5-dimethyl-5-(trifluoromethyl)tetrahydrofuran-2-carboxamido)-N-methylpicolinamide]
< 10		Cc1nn(C(F)F)cc1NC(=O)[C@@H]1O[C@@](C)(C(F)(F)F)[C@@H](C)[C@H]1c1ccc(F)c(F)c1OCc1cn[nH]c1 [Compound 599, (2R,3S,4S,5R)-N-[1-(difluoromethyl)-3-methyl-pyrazol-4-yl]-3-[3,4-difluoro-2-(1H-pyrazol-4-ylmethoxy)phenyl]-4,5-dimethyl-5-(trifluoromethyl)tetrahydrofuran-2-carboxamide]
100 to 1000		Cc1nn(C(F)F)cc1NC(=O)[C@@H]1O[C@@](C)(C(F)(F)F)[C@@H](C)[C@H]1c1ccc(F)c(F)c1CCN(C)C [Compound 678, (2R,3S,4S,5R)—N-(1-(difluoromethyl)-3-methyl-1H-pyrazol-4-yl)-3-(2-(2-(dimethylamino)ethyl)-3,4-difluorophenyl)-4,5-dimethyl-5-(trifluoromethyl)tetrahydrofuran-2-carboxamide]
< 10		Cc1cnc(COc2c([C@H]3[C@H](C(=O)Nc4cccnc4)O[C@@](C)(C(F)(F)F)[C@H]3C)ccc(F)c2F)n1C [Compound 651, (2R,3S,4S,5R)-3-(2-((1,5-dimethyl-1H-imidazol-2-yl)methoxy)-3,4-difluorophenyl)-4,5-dimethyl-N-(pyridin-3-yl)-5-(trifluoromethyl)tetrahydrofuran-2-carboxamide]
10 to 100		COc1c([C@H]2[C@H](C(=O)Nc3cn(C4CCOCC4)nc3C)O[C@@](C)(C(F)(F)F)[C@H]2C)ccc(F)c1F [Compound 325, (2R,3S,4S,5R)-3-(3,4-difluoro-2-methoxyphenyl)-4,5-dimethyl-N-(3-methyl-1-(tetrahydro-2H-pyran-4-yl)-1H-pyrazol-4-yl)-5-(trifluoromethyl)-tetrahydrofuran-2-carboxamide]
10 to 100		COc1c([C@H]2[C@H](C(=O)Nc3ccnc(N4C(=O)[C@H]5C[C@@H]4CN5C)c3)O[C@@](C)(C(F)(F)F)[C@H]2C)ccc(F)c1F [Compound 490, (2R,3S,4S,5R)-3-(3,4-difluoro-2-methoxyphenyl)-4,5-dimethyl-N-(2-((1R,4R)-5-methyl-3-oxo-2,5-diazabicyclo[2.2.1]heptan-2-yl)pyridin-4-yl)-5-(trifluoromethyl)tetrahydrofuran-2-carboxamide]
< 10		COc1c([C@H]2[C@H](C(=O)N[C@H]3C[C@@H]3c3cnn(C)c3)O[C@@](C)(C(F)(F)F)[C@H]2C)ccc(F)c1F (relative stereo) [Compound 267, rel-(2R*,3S*,4S*,5R*)-3-(3,4-difluoro-2-methoxyphenyl)-4,5-dimethyl-N-((1S,2R)-2-(1-methyl-1H-pyrazol-4-yl)cyclopropyl)-5-(trifluoromethyl)tetrahydrofuran-2-carboxamide]
10 to 100		COc1c([C@H]2[C@H](C(=O)Nc3ccnc(OC4CCOCC4)c3)O[C@@](C)(C(F)(F)F)[C@H]2C)ccc(F)c1F [Compound 195, (2R,3S,4S,5R)-3-(3,4-difluoro-2-methoxyphenyl)-4,5-dimethyl-N-(2-((tetrahydro-2H-pyran-4-yl)oxy)pyridin-4-yl)-5-(trifluoromethyl)tetrahydrofuran-2-carboxamide]
